Assay results from US7501453B2, “Cyclopropanes with central nervous system activity” (The Research Foundation of State University of New York, priority 2006, dated 2009).
Read-outs that look alike come from different tables or passages of the source.

Key:
[1] = biological target: T1, hSERT (Homo sapiens, UniProt P31645); test: Inhibition of [125I]RTI-55 binding to hSERT in HEK293 cell membranes
T1 construct: expressed in transfected cells; host or cells: HEK293
Description: (§1) Unknowns are weighed and dissolved in DMSO to make a 10 mM stock solution. An initial dilution to 50 μM in assay buffer for binding, or to 1 mM in water for uptake, is made. Subsequent dilutions are made with assay buffer supplemented with DMSO, maintaining a final concentration of 0.1% DMSO. Pipetting is conducted using a Biomek 2000 robotic workstation.
(§2) Inhibition of Radioligand Binding of [125I]RTI-55 to hDAT, hSERT or hNET in Colonla Cells
(§3) Cell preparation: HEK293 cells expressing hDAT, hSERT or hNET inserts are grown to 80% confluence on 150 mm diameter tissue culture dishes and serve as the tissue source. Cell membranes are prepared as follows. Medium is poured off the plate, and the plate is washed with 10 ml of calcium- and magnesium-free phospate-buffered saline. Lysis buffer (10 ml; 2 mM HEPES with 1 mm EDTA) is added. After 10 min, cells are scraped from plates, poured into centrifuge tubes, and centrifuged […] for 20 min. The supernatant fluid is removed, and the pellet is resuspended in 12-32 ml of 0.32 m sucrose using a Ploytron at setting 7 for 10 sec. The resuspension volume depends on the density of binding sites within a cell line and is chosen to reflect binding of 10% or less to the total radioactivity.
(§4) Assay conditions: Each assay tube contains 50 μl of membrane preparation (about 10-15 μg of protein), 25 μl of unknown compound used to define non-specific binding, or buffer(Krebs-HEPES, pH 7.4;122 mM NaCl, 2.5 mM CaCl2, 1.2 mM MgSO4, 10 μM pargyline, 100 μM tropolone,0.2% glucose and 0.2% ascorbic acid, buffered with 25 mM HEPES) […] of [125I]RTI-55 (40-80 pM final concentration) and additional buffer sufficient to bring up the final volume to 250 μl. Membranes are preincubated with unknowns for 10 min prior to the addition of [125I]RTI-55. The assay tubes are incubated to 25° C. for 90 min. Binding is terminated by filtration over GF/F filters using Tomtec 96-well cell harvester. Fliter are washed for six seconds with ice cold saline. Scintillation fluid is added to each square and radioactivity remaining on the filter is determined using Wallac μ- or beta plate reader. Specific binding is defined as the difference in binding observed in the presence and absence of 5 μM mazindol (HEK-hDAT and HEK-hNET) or […] imipramine (HEK-hSERT). Two or three independent competition experiments are conducted with duplicate determinations. GraphPAD Prism is used to analyze the ensuing data, with IC50 values converted to Ki values using the Cheng-Prusoff equation (Ki=IC50/(1+([125I]RTI-55/KdRTI55))).

[2] = biological target: T2, hNET (Homo sapiens, UniProt P23975); test: Inhibition of [125I]RTI-55 binding to hNET in HEK293 cell membranes; details: [125I]RTI-55 displacement, HEK-hNET membranes; IC50 converted to Ki (Cheng-Prusoff); read-out: Transporter NET
T2 construct: expressed in transfected cells; host or cells: HEK293
Description: as §1, §2, §3, §4

[3] = biological target: T3, hDAT (Homo sapiens, UniProt Q01959); test: Inhibition of [125I]RTI-55 binding to hDAT in HEK293 cell membranes; details: [125I]RTI-55 displacement, HEK-hDAT membranes; IC50 converted to Ki (Cheng-Prusoff); read-out: Transporter DAT
T3 construct: expressed in transfected cells; host or cells: HEK293
Description: as §1, §2, §3, §4

[4] = [125I]RTI-55 displacement, HEK-hSERT membranes, IC50 converted to Ki (Cheng-Prusoff), read-out: Transporter SERT

T3 sequence (Q01959 whole entry): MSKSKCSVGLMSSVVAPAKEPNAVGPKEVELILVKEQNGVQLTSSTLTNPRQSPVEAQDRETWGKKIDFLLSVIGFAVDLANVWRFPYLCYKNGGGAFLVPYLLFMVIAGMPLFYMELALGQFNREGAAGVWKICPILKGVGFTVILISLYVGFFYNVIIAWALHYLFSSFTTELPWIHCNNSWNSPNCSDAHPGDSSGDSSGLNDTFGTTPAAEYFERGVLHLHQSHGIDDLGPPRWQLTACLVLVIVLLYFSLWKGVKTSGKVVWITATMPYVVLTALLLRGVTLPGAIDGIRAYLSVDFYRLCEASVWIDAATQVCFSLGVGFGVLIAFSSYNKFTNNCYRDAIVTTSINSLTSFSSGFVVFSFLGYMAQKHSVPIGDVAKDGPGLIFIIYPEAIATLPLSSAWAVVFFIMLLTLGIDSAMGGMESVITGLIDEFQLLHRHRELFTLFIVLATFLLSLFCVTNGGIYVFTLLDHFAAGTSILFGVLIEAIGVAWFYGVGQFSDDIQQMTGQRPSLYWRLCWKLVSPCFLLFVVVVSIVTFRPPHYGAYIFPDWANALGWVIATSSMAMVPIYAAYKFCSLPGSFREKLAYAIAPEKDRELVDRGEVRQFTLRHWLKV
T2 sequence (P23975 whole entry): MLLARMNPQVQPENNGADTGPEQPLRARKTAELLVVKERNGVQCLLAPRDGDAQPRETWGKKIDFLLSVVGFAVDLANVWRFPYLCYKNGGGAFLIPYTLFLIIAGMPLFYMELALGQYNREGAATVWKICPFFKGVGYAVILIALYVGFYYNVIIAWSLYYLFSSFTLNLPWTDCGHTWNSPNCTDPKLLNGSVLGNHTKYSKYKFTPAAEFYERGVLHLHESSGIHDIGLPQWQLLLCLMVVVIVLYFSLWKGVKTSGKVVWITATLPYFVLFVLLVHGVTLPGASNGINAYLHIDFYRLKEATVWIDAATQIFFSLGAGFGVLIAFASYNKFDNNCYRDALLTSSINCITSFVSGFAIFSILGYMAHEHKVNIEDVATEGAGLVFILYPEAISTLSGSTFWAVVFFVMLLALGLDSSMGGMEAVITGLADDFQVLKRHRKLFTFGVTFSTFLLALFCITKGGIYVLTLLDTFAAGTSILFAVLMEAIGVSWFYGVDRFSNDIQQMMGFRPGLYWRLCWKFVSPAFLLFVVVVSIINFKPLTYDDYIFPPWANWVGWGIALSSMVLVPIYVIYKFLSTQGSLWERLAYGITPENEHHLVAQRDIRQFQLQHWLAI
T1 sequence (P31645 whole entry): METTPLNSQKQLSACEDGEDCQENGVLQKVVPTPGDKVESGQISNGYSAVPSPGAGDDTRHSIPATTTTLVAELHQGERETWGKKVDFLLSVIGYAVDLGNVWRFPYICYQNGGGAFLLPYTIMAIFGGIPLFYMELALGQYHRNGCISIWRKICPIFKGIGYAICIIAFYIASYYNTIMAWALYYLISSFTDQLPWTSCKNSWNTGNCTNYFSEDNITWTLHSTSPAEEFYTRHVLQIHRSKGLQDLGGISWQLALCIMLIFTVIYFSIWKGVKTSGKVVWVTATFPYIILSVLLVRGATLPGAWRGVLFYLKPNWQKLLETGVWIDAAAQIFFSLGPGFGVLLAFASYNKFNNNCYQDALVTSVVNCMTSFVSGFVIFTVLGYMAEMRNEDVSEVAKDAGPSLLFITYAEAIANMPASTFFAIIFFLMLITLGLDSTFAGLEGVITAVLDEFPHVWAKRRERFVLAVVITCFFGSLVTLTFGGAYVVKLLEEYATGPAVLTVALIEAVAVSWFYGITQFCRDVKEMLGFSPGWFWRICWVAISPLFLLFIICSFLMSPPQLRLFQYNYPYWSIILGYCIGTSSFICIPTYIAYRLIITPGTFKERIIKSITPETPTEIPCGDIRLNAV

| Structure (SMILES) | Ki [1, 4] | Ki [2] | Ki [3] | Ki [1] |
| --- | --- | --- | --- | --- |
| CNC[C@@]1(c2ccccc2)C[C@@H]1c1ccccc1 [compound 32697] | > 10 µM | 3.9 µM | > 5.3 µM | – |
| CNC[C@@]1(c2ccc(Cl)c(Cl)c2)C[C@@H]1c1ccc(Cl)c(Cl)c1 [compound 32695] | 0.172 µM | 2.9 µM | 0.73 µM | – |
| CNC[C@]1(c2ccc(Cl)c(Cl)c2)C[C@H]1c1ccccc1 [32,222] | 4.6 µM | > 10 µM | 6.6 µM | – |
| CNC[C@@]1(c2ccccc2)C[C@@H]1c1ccc(Cl)c(Cl)c1 [32,219] | 0.114 µM | 1.87 µM | 0.218 µM | – |
| CNC[C@]1(c2ccccc2)C[C@H]1c1ccc2ccccc2c1 [compound 32698] | – | 1.27 µM | 1.6 µM | 0.014 µM |
| CNC[C@]1(c2ccccc2)C[C@H]1c1ccccc1 [compound 32696] | > 7.3 µM | 4.3 µM | 4.65 µM | – |
| CNC[C@]1(c2ccccc2)C[C@H]1c1ccc(Cl)c(Cl)c1 [32,220] | – | 1.46 µM | 1.45 µM | 0.045 µM |
| CNC[C@@]1(c2ccc(Cl)c(Cl)c2)C[C@@H]1c1ccccc1 [32,221] | 1.04 µM | 3.13 µM | 1.38 µM | – |
| CNC[C@]1(c2ccc(Cl)c(Cl)c2)C[C@H]1c1ccc(Cl)c(Cl)c1 [compound 32694] | 1.53 µM | 3.7 µM | 1.26 µM | – |
